Converted amounts (≈) assume the structure as drawn.
Experiments:
Test in all cases: In vitro antibacterial evaluation: minimum inhibitory concentration (MIC), broth dilution method
Type in all cases: cell-based
Enterococcus sp. = settings: broth dilution, 5×10^5 CFU/mL, 18 hours at 35° C.
Procedure, shortened: (§1)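 First, organisms are seeded at 5×10^5 CFU/mL into Muller-Hinton II […]. Next, antibiotic is applied across 64-0.06 μg/mL by broth dilution (NCCLS M7-A2). Finally, the lowest inhibitory concentration is recorded as MIC.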

Escherichia coli = settings: 5×10^5 CFU/mL, 18 hours at 35° C.
Procedure, shortened: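 Susceptibility determined by NCCLS-recommended broth dilution (M7-A2), Muller-Hinton II […]. Concentration span 64-0.06 μg/mL, inoculum 5×10^5 CFU/mL. Isolates include strains resistant to methicillin, penicillin and/or vancomycin.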

Staphylococcus sp. = settings: for MIC Staphylococcus aureus (ATCC 29213): strain ATCC 29213; for MIC Staphylococcus aureus (GC 1131): strain GC 1131; for MIC Staphylococcus aureus (GC 3051): strain GC 3051; for MIC Staphylococcus aureus (GC 3053): strain GC 3053; for MIC Staphylococcus aureus (GC 4541): strain GC 4541; for MIC Staphylococcus aureus (GC 4542): strain GC 4542; for MIC Staphylococcus aureus-SMITH (GC 4543): strain GC 4543; for MIC Staphylococcus aureus (GC 4544): strain GC 4544; for MIC Staphylococcus aureus (GC 4545): strain GC 4545; for MIC Staphylococcus haemolyticus (GC 4546): strain GC 4546; for MIC Coagulase Negative Staphylococcus (GC 4547): strain GC 4547; for MIC Coagulase Negative Staphylococcus (GC 4548): strain GC 4548; for MIC Coagulase Negative Staphylococcus (GC 4549): strain GC 4549; for MIC Coagulase Negative Staphylococcus (GC 4551): strain GC 4551; for MIC Coagulase Negative Staphylococcus (GC 6257): strain GC 6257
Procedure, shortened: as §1

Streptococcus sp. = settings: broth dilution, 5×10^5 CFU/mL, 18 hours at 35° C.
Procedure, shortened: as §1

[1] = broth dilution, 18 hours at 35° C.

CC(C)=CCCC1OCC2OC(OC3C(CO)OC(Oc4ccc(CC5NC(=O)C(C(C)c6ccccc6)NC(=O)CNC(=O)C(CO)NC(=O)C(C(O)C6CNC(=N)N6C6OC(CO)C(O)C(O)C6O)NC(=O)C(C(O)C6CNC(=N)N6)NC5=O)cc4)C(O)C3O)C(O)C(O)C2O1 (stereo not drawn) [Example 123, Cyclo[glycyl-β-methylphenylalanyl-O-[4-O-[4,6-O-[5-methylhex-4-en-1-ylidene)hexopyranosyl]hexopyranosyl]tyrosyl-3-[2-iminoimidazolidin-4-yl)seryl-3-(3-hexopyranosyl-2-iminoimidazolidin-4-yl)serylseryl]]
MIC Enterococccus avium (GC 4558) (Enterococcus sp.): 16 µg/mL (≈ 11.5 µM) | MIC Enterococccus faecalis (ATCC 29212) (Enterococcus sp.): 8 µg/mL (≈ 5.76 µM) | MIC Enterococccus faecalis (GC 2691) (Enterococcus sp.): 16 µg/mL (≈ 11.5 µM) | MIC Enterococccus faecalis (GC 3059) (Enterococcus sp.): 16 µg/mL (≈ 11.5 µM) | MIC Enterococccus faecalis (GC 4552) (Enterococcus sp.): 8 µg/mL (≈ 5.76 µM) | MIC Enterococccus faecalis (GC 4553) (Enterococcus sp.): 16 µg/mL (≈ 11.5 µM) | MIC Enterococccus faecalis (GC 4554) (Enterococcus sp.): 16 µg/mL (≈ 11.5 µM) | MIC Enterococccus faecalis (GC 6189) (Enterococcus sp.): 8 µg/mL (≈ 5.76 µM) | MIC Enterococccus faecium (GC 2243) (Enterococcus sp.): 8 µg/mL (≈ 5.76 µM) | MIC Enterococccus faecium (GC 4556) (Enterococcus sp.): 8 µg/mL (≈ 5.76 µM) | MIC Enterococccus faecium (GC 4557) (Enterococcus sp.): 8 µg/mL (≈ 5.76 µM) | MIC Enterococcus faecalis (GC 2242) (Enterococcus sp.): 8 µg/mL (≈ 5.76 µM) | MIC Escherichia coli (ATCC 25922) (Escherichia coli): >64 µg/mL | MIC Escherichia coli (GC 4559) (Escherichia coli): >64 µg/mL | MIC Escherichia coli (GC 4560) (Escherichia coli): 8 µg/mL (≈ 5.76 µM) | MIC Staphylococcus aureus (ATCC 29213) (Staphylococcus sp.): 8 µg/mL (≈ 5.76 µM) | MIC Staphylococcus aureus (ATCC 29213) (Staphylococcus sp.; [1]): 8 µg/mL (≈ 5.76 µM) | MIC Staphylococcus aureus (GC 1131) (Staphylococcus sp.): 8 µg/mL (≈ 5.76 µM) | MIC Staphylococcus aureus (GC 1131) (Staphylococcus sp.; [1]): 8 µg/mL (≈ 5.76 µM) | MIC Staphylococcus aureus (GC 3051) (Staphylococcus sp.): 8 µg/mL (≈ 5.76 µM) | MIC Staphylococcus aureus (GC 3051) (Staphylococcus sp.; [1]): 8 µg/mL (≈ 5.76 µM) | MIC Staphylococcus aureus (GC 3053) (Staphylococcus sp.): 8 µg/mL (≈ 5.76 µM) | MIC Staphylococcus aureus (GC 3053) (Staphylococcus sp.; [1]): 8 µg/mL (≈ 5.76 µM) | MIC Staphylococcus aureus (GC 4541) (Staphylococcus sp.): 4 µg/mL (≈ 2.88 µM) | MIC Staphylococcus aureus (GC 4541) (Staphylococcus sp.; [1]): 4 µg/mL (≈ 2.88 µM) | MIC Staphylococcus aureus (GC 4542) (Staphylococcus sp.): 4 µg/mL (≈ 2.88 µM) | MIC Staphylococcus aureus (GC 4542) (Staphylococcus sp.; [1]): 4 µg/mL (≈ 2.88 µM) | MIC Staphylococcus aureus-SMITH (GC 4543) (Staphylococcus sp.; 18 hours at 35° C.): 4 µg/mL (≈ 2.88 µM) | MIC Staphylococcus aureus-SMITH (GC 4543) (Staphylococcus sp.; [1]): 4 µg/mL (≈ 2.88 µM) | MIC Staphylococcus aureus (GC 4544) (Staphylococcus sp.): 8 µg/mL (≈ 5.76 µM) | MIC Staphylococcus aureus (GC 4544) (Staphylococcus sp.; [1]): 8 µg/mL (≈ 5.76 µM) | MIC Staphylococcus aureus (GC 4545) (Staphylococcus sp.): 8 µg/mL (≈ 5.76 µM) | MIC Staphylococcus aureus (GC 4545) (Staphylococcus sp.; [1]): 8 µg/mL (≈ 5.76 µM) | MIC Staphylococcus haemolyticus (GC 4546) (Staphylococcus sp.): 8 µg/mL (≈ 5.76 µM) | MIC Staphylococcus haemolyticus (GC 4546) (Staphylococcus sp.; [1]): 8 µg/mL (≈ 5.76 µM) | MIC Coagulase Negative Staphylococcus (GC 4547) (Staphylococcus sp.): 8 µg/mL (≈ 5.76 µM) | MIC Coagulase Negative Staphylococcus (GC 4547) (Staphylococcus sp.; [1]): 8 µg/mL (≈ 5.76 µM) | MIC Coagulase Negative Staphylococcus (GC 4548) (Staphylococcus sp.): 4 µg/mL (≈ 2.88 µM) | MIC Coagulase Negative Staphylococcus (GC 4548) (Staphylococcus sp.; [1]): 4 µg/mL (≈ 2.88 µM) | MIC Coagulase Negative Staphylococcus (GC 4549) (Staphylococcus sp.): 4 µg/mL (≈ 2.88 µM) | MIC Coagulase Negative Staphylococcus (GC 4549) (Staphylococcus sp.; [1]): 4 µg/mL (≈ 2.88 µM) | MIC Coagulase Negative Staphylococcus (GC 4551) (Staphylococcus sp.): 8 µg/mL (≈ 5.76 µM) | MIC Coagulase Negative Staphylococcus (GC 4551) (Staphylococcus sp.; [1]): 8 µg/mL (≈ 5.76 µM) | MIC Coagulase Negative Staphylococcus (GC 6257) (Staphylococcus sp.): 4 µg/mL (≈ 2.88 µM) | MIC Coagulase Negative Staphylococcus (GC 6257) (Staphylococcus sp.; [1]): 4 µg/mL (≈ 2.88 µM) | MIC Streptococcus agalactiae (GC 4564) (Streptococcus sp.): 2 µg/mL (≈ 1.44 µM) | MIC Streptococcus pneumoniae (GC 1894) (Streptococcus sp.): 1 µg/mL (≈ 0.72 µM) | MIC Streptococcus pneumoniae (GC 4565) (Streptococcus sp.): 2 µg/mL (≈ 1.44 µM) | MIC Streptococcus pneumonine (ATCC 6301) (Streptococcus sp.): 1 µg/mL (≈ 0.72 µM) | MIC Streptococcus pyogenes (GC 4563) (Streptococcus sp.): 0.5 µg/mL (≈ 0.36 µM)
